Reference: patent publication US20150239889A1, “PYRAZOLOPYRIMIDINE COMPOUND” (MITSUBISHI TANABE PHARMA CORPORATION, priority 2012, published 2015)

Columns and labels:
[1] = molecular target: T1, human HIF-PHD3 (Homo sapiens, UniProt Q9H6Z9); assay: HIF-PHD inhibition assay (fluorescence polarization), human HIF-PHD3; type: biochemical; settings: 2-oxoglutaric acid 166 μmol/L
T1 construct: purchased CrystalGenomics Ltd
Procedure, shortened: (§1)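 Activity was derived as the fluorescence polarization (mP) after enzyme addition minus that measured before enzyme addition. Probe bore a 5′-fluoresceinamide (FAM) label with an aminocaproic acid (ACA) linker.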

[2] = molecular target: T2, human HIF-PHD2 (Homo sapiens, UniProt Q9GZT9); assay: HIF-PHD inhibition assay (fluorescence polarization), human HIF-PHD2; type: biochemical; settings: 2-oxoglutaric acid 3.33 μmol/L
T2 construct: purchased CrystalGenomics Ltd
Procedure, shortened: as §1

[3] = test system: Hep3B cells; assay: EPO production assay (ELISA of culture supernatant); type: cell-based; settings: Homo sapiens, 3 μmol/L test compound, 48 hours, relative to control (0.1% DMSO), read-out: EPO production stimulation rate with 3 μmol/L test compound
Procedure, shortened: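 Hep3B cells (40000/well) switched to MEM with 0.5% FBS and treated with compound (0.1% DMSO) for 48 h at 37 °C. Supernatant EPO measured by ELISA; value is fold stimulation at 3 μmol/L compound over unstimulated control.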

T2 sequence (Q9GZT9 2-426 limits assumed): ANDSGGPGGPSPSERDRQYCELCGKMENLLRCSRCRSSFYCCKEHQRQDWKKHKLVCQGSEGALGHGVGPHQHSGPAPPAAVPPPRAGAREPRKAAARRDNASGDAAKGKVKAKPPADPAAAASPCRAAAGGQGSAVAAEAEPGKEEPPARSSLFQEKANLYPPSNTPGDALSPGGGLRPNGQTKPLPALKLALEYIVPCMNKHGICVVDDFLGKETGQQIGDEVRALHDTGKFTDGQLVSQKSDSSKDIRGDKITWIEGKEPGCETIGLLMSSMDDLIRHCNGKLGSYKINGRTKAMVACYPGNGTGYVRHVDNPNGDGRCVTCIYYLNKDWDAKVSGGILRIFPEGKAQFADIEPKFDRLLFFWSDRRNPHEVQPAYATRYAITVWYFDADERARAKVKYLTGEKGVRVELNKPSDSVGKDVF
T1 sequence (Q9H6Z9 whole entry): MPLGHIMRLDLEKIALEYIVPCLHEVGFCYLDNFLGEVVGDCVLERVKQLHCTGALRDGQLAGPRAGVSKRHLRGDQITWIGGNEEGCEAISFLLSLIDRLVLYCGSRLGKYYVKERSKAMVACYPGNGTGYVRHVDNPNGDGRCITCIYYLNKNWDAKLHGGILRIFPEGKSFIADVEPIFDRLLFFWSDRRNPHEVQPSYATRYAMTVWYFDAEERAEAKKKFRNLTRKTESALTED

| Structure (SMILES) | IC50 [1] | IC50 [2] | fold induction at 3 µM [3] |
| --- | --- | --- | --- |
| Cc1ccc(OC(C)(C)Cn2ncc3nc(-n4cc(C(=O)O)cn4)nc(O)c32)c2c1CCC2 [Example 211] | 180 nM | 26 nM | 8.9 |
| CC(C)(Cn1ncc2nc(-n3cc(C(=O)O)cn3)nc(O)c21)Oc1cccc2ccccc12 [Example 212] | 310 nM | 26 nM | 2.7 |
| CC(C)(Cn1ncc2nc(-n3cc(C(=O)O)cn3)nc(O)c21)Oc1ccc2c(c1)CCCC2 [Example 214] | 220 nM | 17 nM | 6.8 |
| O=C(O)c1cnn(-c2nc(O)c3c(n2)c(F)nn3Cc2ccc3ccccc3c2)c1 [Example 216] | 300 nM | 15 nM | 1.5 |
| O=C(O)c1cnn(-c2nc(O)c3c(n2)c(F)nn3CC2CCCCC2)c1 [Example 217] | 920 nM | 32 nM | 2.4 |
| C[C@H]1CC[C@H](Cn2nc(F)c3nc(-n4cc(C(=O)O)cn4)nc(O)c32)CC1 [Example 218] | 750 nM | 15 nM | 3 |
| O=C(O)c1cnn(-c2nc(O)c3c(n2)c(Cl)nn3Cc2ccc(Br)cc2)c1 [Example 220] | 340 nM | 14 nM | 4 |
| O=C(O)c1cnn(-c2nc(O)c3c(n2)c(Cl)nn3CC2CCCCC2)c1 [Example 222] | 450 nM | 48 nM | 1.5 |
| C[C@H]1CC[C@H](Cn2nc(Cl)c3nc(-n4cc(C(=O)O)cn4)nc(O)c32)CC1 [Example 223] | 950 nM | 28 nM | 3.2 |
| CC(C)[C@H]1CC[C@H](Cn2nc(Cl)c3nc(-n4cc(C(=O)O)cn4)nc(O)c32)CC1 [Example 224] | 91 nM | 11 nM | 8.4 |
| O=C(O)c1cnn(-c2nc(O)c3c(n2)c(Cl)nn3CC2CCCCCC2)c1 [Example 226] | 1400 nM | 47 nM | 2.2 |
| Cc1nn(Cc2ccc(-c3ccccc3)cc2)c2c(O)nc(-n3cc(C(=O)O)cn3)nc12 [Example 228] | 68 nM | 10 nM | 3.9 |
| O=C(O)c1cnn(-c2nc(O)c3c(n2)c(C2CC2)nn3CC2CCCCC2)c1 [Example 234] | 660 nM | 91 nM | 5.7 |
| O=C(O)c1cnn(-c2nc(O)c3nn(Cc4ccc(Cl)c(Cl)c4)cc3n2)c1 [Example 235] | 13 nM | 3 nM | 1.9 |
| COc1ccc(Cn2cc3nc(-n4cc(C(=O)O)cn4)nc(O)c3n2)cc1 [Example 236] | 77 nM | 11 nM | 0.91 |
| O=C(O)c1cnn(-c2nc(O)c3nn(Cc4cc(C(F)(F)F)cc(Cl)c4F)cc3n2)c1 [Example 238] | 770 nM | 10 nM | 0.7 |
| O=C(O)c1cnn(-c2nc(O)c3nn(C(c4ccc(Cl)cc4)c4ccc(Cl)cc4)cc3n2)c1 [Example 239] | 99 nM | 5.5 nM | 1.4 |
| O=C(O)c1cnn(-c2nc(O)c3nn(Cc4cccc(-c5ccccc5)c4)cc3n2)c1 [Example 240] | 140 nM | 17 nM | 1 |
| O=C(O)c1cnn(-c2nc(O)c3nn(Cc4ccccc4-c4ccccc4)cc3n2)c1 [Example 241] | 370 nM | 8.7 nM | 1.2 |
| O=C(O)c1cnn(-c2nc(O)c3nn(Cc4ccc5ccccc5c4)cc3n2)c1 [Example 242] | 150 nM | 17 nM | 1.7 |
| O=C(O)c1cnn(-c2nc(O)c3nn(CCc4ccc5ccccc5c4)cc3n2)c1 [Example 243] | 260 nM | 57 nM | 1.6 |
| O=C(O)c1cnn(-c2nc(O)c3nn(Cc4ccc(Cl)cc4F)cc3n2)c1 [Example 244] | 180 nM | 63 nM | 1.4 |

Further lines, with some results ahead:

| IC50 [1] | IC50 [2] | Structure (SMILES) | fold induction at 3 µM [3] |
| --- | --- | --- | --- |
| 170 nM | 28 nM | O=C(O)c1cnn(-c2nc(O)c3c(cnn3CCCOc3ccc(Cl)c(C(F)(F)F)c3)n2)c1 [Example 177] | 9.1 |
| 570 nM | 24 nM | CC(C)(C)c1ccc(OCCCn2ncc3nc(-n4cc(C(=O)O)cn4)nc(O)c32)cc1 [Example 178] | 37 |
| 160 nM | 45 nM | CC(C)(C)c1cccc(OCCCn2ncc3nc(-n4cc(C(=O)O)cn4)nc(O)c32)c1 [Example 179] | 14 |
| 220 nM | 35 nM | O=C(O)c1cnn(-c2nc(O)c3c(cnn3CCCOc3ccc(OCc4ccccc4)c(F)c3)n2)c1 [Example 181] | 34 |
| 56 nM | 22 nM | Cc1cc(OCCCn2ncc3nc(-n4cc(C(=O)O)cn4)nc(O)c32)cc(C)c1Cl [Example 182] | 9.1 |
| 340 nM | 63 nM | O=C(O)c1cnn(-c2nc(O)c3c(cnn3CCCOc3cc(C(F)(F)F)cc(C(F)(F)F)c3)n2)c1 [Example 183] | 7.5 |
| 220 nM | 12 nM | O=C(O)c1cnn(-c2nc(O)c3c(cnn3CCCOc3ccc4ccccc4c3)n2)c1 [Example 187] | 10 |
| 540 nM | 14 nM | O=C(O)c1cnn(-c2nc(O)c3c(cnn3CCCOc3ccc4c(c3)CCCC4)n2)c1 [Example 188] | 23 |
| 150 nM | 20 nM | Cc1cc2c(cc1OCCCn1ncc3nc(-n4cc(C(=O)O)cn4)nc(O)c31)CCCC2 [Example 189] | 8.7 |
| 540 nM | 130 nM | O=C(O)c1cnn(-c2nc(O)c3c(cnn3CCCOc3ccc4c(c3C3CC3)CCCC4)n2)c1 [Example 191] | 1.6 |
| 350 nM | 28 nM | O=C(O)c1cnn(-c2nc(O)c3c(cnn3CCCOc3cccc4ccccc34)n2)c1 [Example 192] | 3.5 |
| 190 nM | 85 nM | O=C(O)c1cnn(-c2nc(O)c3c(cnn3CCCOc3cccc4c3CCCC4)n2)c1 [Example 193] | 9.8 |
| 53 nM | 14 nM | O=C(O)c1cnn(-c2nc(O)c3c(cnn3CCCOc3ccc(Cl)c4c3CCC4)n2)c1 [Example 194] | 18 |
| 300 nM | 20 nM | O=C(O)c1cnn(-c2nc(O)c3c(cnn3CCCOc3ccc(-c4ccccc4)cc3)n2)c1 [Example 196] | 25 |
| 760 nM | 190 nM | CC(C)(COc1ccc(Cl)cc1)Cn1ncc2nc(-n3cc(C(=O)O)cn3)nc(O)c21 [Example 197] | 5.8 |
| 1200 nM | 89 nM | O=C(O)c1cnn(-c2nc(O)c3c(cnn3CC3(COc4ccc(Cl)cc4)CC3)n2)c1 [Example 198] | 3.2 |
| 1100 nM | 130 nM | O=C(O)c1cnn(-c2nc(O)c3c(cnn3CC3(COc4ccc5c(c4)CCCC5)CC3)n2)c1 [Example 199] | 5 |
| 1800 nM | 12 nM | O=C(O)c1cnn(-c2nc(O)c3c(cnn3CCOc3ccccc3)n2)c1 [Example 200] | 1.4 |
| 860 nM | 130 nM | O=C(O)c1cnn(-c2nc(O)c3c(cnn3CCOc3ccccc3C(F)(F)F)n2)c1 [Example 201] | 3.2 |
| 300 nM | 59 nM | O=C(O)c1cnn(-c2nc(O)c3c(cnn3CCOc3cccc(C(F)(F)F)c3)n2)c1 [Example 202] | 3.6 |
| 170 nM | 65 nM | O=C(O)c1cnn(-c2nc(O)c3c(cnn3CCOc3ccc(C(F)(F)F)cc3)n2)c1 [Example 203] | 4.5 |
| 650 nM | 19 nM | CC(C)(C)c1ccc(OCCn2ncc3nc(-n4cc(C(=O)O)cn4)nc(O)c32)cc1 [Example 204] | 12 |
| 280 nM | 13 nM | O=C(O)c1cnn(-c2nc(O)c3c(cnn3CCOc3ccc(-c4ccccc4)cc3)n2)c1 [Example 205] | 20 |
| 510 nM | 32 nM | O=C(O)c1cnn(-c2nc(O)c3c(cnn3CCOc3cccc4ccccc34)n2)c1 [Example 206] | 2.2 |
| 160 nM | 13 nM | O=C(O)c1cnn(-c2nc(O)c3c(cnn3CCOc3ccc4ccccc4c3)n2)c1 [Example 207] | 2.5 |
| 240 nM | 14 nM | O=C(O)c1cnn(-c2nc(O)c3c(cnn3CCOc3ccc4c(c3)CCCC4)n2)c1 [Example 208] | 7.1 |
| 230 nM | 33 nM | CC(C)(Cn1ncc2nc(-n3cc(C(=O)O)cn3)nc(O)c21)Oc1ccccc1Cl [Example 209] | 2.2 |
| 220 nM | 21 nM | CC(C)(Cn1ncc2nc(-n3cc(C(=O)O)cn3)nc(O)c21)Oc1ccc(Cl)cc1 [Example 210] | 19 |
| 110 nM | 17 nM | CC(C)(Cn1ncc2nc(-n3cc(C(=O)O)cn3)nc(O)c21)Oc1ccc2ccccc2c1 [Example 213] | 6.4 |
| 290 nM | 14 nM | O=C(O)c1cnn(-c2nc(O)c3c(cnn3CCCCOc3ccc(F)cc3)n2)c1 [Example 215] | 6.7 |
